How the values were obtained:
[1] = tested on: murine ASMC (CD47 null); test: Murine ASMC proliferation; assay type: cell-based, mouse; details: CD47 null MASMC
Method: (§1) Murine ASMC were obtained from aortic segments harvested sterilely from C57B1/6 CD47 null or CD36 null mice as described (Ray et al., Methods Cell Sci 23:185-188, 2001) and cultured in SM-GM (Cambrex)+20% FCS. In the case of CD36 null cells, culture flasks were pre-coated with 1% gelatin prior to cell plating. Wild type C57B1/6 ASMC cultures were prepared as previously described (Isenberg et al., Matrix Biol 24:110-123, 2005). Cell culture purity was determined by immunohistochemistry staining for α-smooth muscle actin. Cells were used within passage 1 to 4 to minimize overgrowth of other cell types.
Proliferation of vascular cells was measured with a non-radioactive colorimetric assay (CellTiter 96, Promega, Madison, Wis.). Briefly, to each well of a 96-well culture plate (Nunc, Denmark) 5×10^3 cells were suspended in 100 μl of culture medium with indicated treatments and incubated for 72 hours at 37° C. in a 5% CO2 atmosphere. Following incubation 20 μl of tetrazolium compound/solubilization agent was added and incubation continued for 4 hours under the same conditions. The plate was then read on a MR580 Microelisa Auto Reader (Dynatech) at a wavelength of 490 nm. Appropriate zero time controls were run for all assays and the optical density readings obtained then subtracted from those obtained at 72 hours.

[2] = tested on: murine ASMC (WT, CD36 null, CD47 null); test: Intracellular cGMP in murine ASMC; assay type: cell-based, mouse; details: WT MASMC
Method: as §1
HUVEC (10^4 cells/well) grown overnight in 96-well culture plates containing full growth medium with 2% FCS and weaned in growth medium without additives and 1% FCS over 24 hrs before treatment with NO donors and other agents in SM-GM without additives+0.1% BSA. Intracellular cGMP levels were determined according to the manufacturer's instructions using an enzyme immunoassay kit (Amersham Biosciences). In other experiments ASMC from wild type and CD36 or CD47 null mice were plated onto 96-well culture plates and incubated overnight in full growth medium. They were then weaned off serum as described to SM-GM+0.1% BSA and treated with NO donor and other agents as indicated. Intracellular cyclic nucleotides were determined via immunoassay.

[3] = tested on: human platelets; test: Thrombin-induced human platelet aggregation; assay type: cell-based; details: DEA/NO 10 μM
Summary of the method: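 Washed human platelets in Tyrode's buffer pH 7.4 (2×10^5/μl) are stirred at 1200 rpm and 37 °C, and optical aggregation is followed for 5 min; under static conditions, A400 is tracked for 5 min instead. TSP1 agents or 1 μM peptide C6d are pre-incubated for 15 min before thrombin ± DEA/NO (10 μM).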

[4] = tested on: human platelets; test: cGMP in human platelets; assay type: cell-based; details: washed human platelets in Tyrode's buffer
Method: (§2) Fresh human platelets at 2×10^5 platelets/μl in Tyrode's buffer or PRP were pre-incubated with the indicated agents for 15 minutes and then challenged with DEA/NO for the indicated time interval at room temperature and total cGMP determined via immunoassay (Amersham, GE Healthcare, Buckinghamshire, UK). Murine WT and TSP1-null platelets were treated with DEA/NO and cGMP flux measured.

[5] = tested on: skeletal muscle blood oxygenation in mice; test: BOLD MRI of hindlimb muscle after NO challenge; assay type: in vivo, mouse; details: for magnitude of increased BOLD MRI signal: DEA/NO 100 nmol/g intrarectal
Method: MRI images were acquired using a Bruker Biospin 4.7 T scanner and isoflurane anesthesia. Muscle tissue scanned was at rest, so alterations in oxygenation reflected changes in perfusion rather than in oxygen consumption (Krishna et al., Ilar J 42:209-218, 2001; Watterson et al., Cell Signal 17:289-298, 2005). MR measurements were started after the mouse's body temperature reached 37° C. Prior to the experiments, gradient echo based T1 sequence was used to determine the target slice location. A series of T2* weighted gradient echo blood oxygenation level dependent (BOLD) image data sets at transverse to the midpoint of the femur were repeatedly acquired for 30 min to monitor temporal changes in blood oxygenation and blood flow. DEA/NO (100 nmol/g body weight) was injected with saline via the rectal cannula 5.0 min after starting the scan. Imaging parameters used were: TR=450 ms, Flip angle=45, Nex=1, slice thickness=2 mm, matrix size=64×64, total imaging time for the series was 29 min.

[6] = molecular target: T1, cGK-I (Homo sapiens, UniProt Q13976); test: cGK in vitro kinase assay of platelet lysates; assay type: biochemical; details: activation via sGC using DEA/NO in intact platelets
T1 construct: endogenous in cells; host or cells: washed human platelets, treated intact, then lysed
T1 sequence (Q13976 1-686 isoform Q13976-2): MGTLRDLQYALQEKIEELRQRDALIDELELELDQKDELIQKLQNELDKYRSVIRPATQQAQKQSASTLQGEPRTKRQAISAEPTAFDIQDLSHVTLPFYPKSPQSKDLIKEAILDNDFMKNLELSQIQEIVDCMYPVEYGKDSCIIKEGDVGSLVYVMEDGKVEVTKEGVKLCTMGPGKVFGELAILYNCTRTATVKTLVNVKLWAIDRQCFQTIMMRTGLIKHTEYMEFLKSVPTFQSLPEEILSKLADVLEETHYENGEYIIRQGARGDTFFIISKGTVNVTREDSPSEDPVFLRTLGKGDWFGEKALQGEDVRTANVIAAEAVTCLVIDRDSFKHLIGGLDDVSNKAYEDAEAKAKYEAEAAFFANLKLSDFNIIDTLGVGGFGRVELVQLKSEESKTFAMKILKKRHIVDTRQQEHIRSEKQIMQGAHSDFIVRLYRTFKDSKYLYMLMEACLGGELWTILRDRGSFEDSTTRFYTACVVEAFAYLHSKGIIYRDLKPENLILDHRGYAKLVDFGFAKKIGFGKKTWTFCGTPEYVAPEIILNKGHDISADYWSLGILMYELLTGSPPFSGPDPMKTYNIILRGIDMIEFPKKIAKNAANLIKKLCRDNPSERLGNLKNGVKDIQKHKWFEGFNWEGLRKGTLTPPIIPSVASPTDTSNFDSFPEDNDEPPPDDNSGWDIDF
Method: Platelets were washed as described above and resuspended in Tyrode's buffer (3×10^8 platelets/mL). Platelets were preincubated with TSP1 (2.2 nM) or Rp-8-pCPT-cGMP for 15 minutes prior to treatment with 8-Br-cGMP (100 μM) or NO (DEA/NO 10 μM) for 2 minutes. Treatment was stopped by placing the platelets on ice. Immediately following treatment, platelets were pelleted by centrifugation at 13,000×g at 4° C. for 15 seconds and resuspended in a lysis buffer containing 10 mM HEPES (pH 7.4), 1 mM EDTA, 1 mM 3-Isobutyl-1-methylxanthine, 125 mM KCl, 1 mM phenylmethysulfonylfluoride, 1 μg/ml aprotinin, and 1 μg/ml leupeptin. Resuspended platelets were sonicated on ice 3 times for 10 seconds each before centrifugation at 13,000×g for 5 minutes at 4° C. 100 μg lysate from each sample was incubated at 25° C. for 20 minutes with kinase buffer (150 μM Arg-Lys-Arg-Ser-Arg-Ala-Glu (SEQ ID NO: 17) peptide substrate (Bachem, King of Prussia, Pa.)), 10 mM HEPES pH 7.4, 35 mM β-glycerophosphate, 4 mM MgCl2, 5 μM Rp-8 pCPT-cAMPS, 0.5 mM EDTA, […] [γ-32P]ATPS (Sigma-Aldrich, St. Louis, Mo.)). Kinase assay reactions were terminated by spotting 50 μL of reaction mixture onto nitrocellulose. Nitrocellulose spots were washed 5 times each with 100 μL of 0.5% phosphoric acid before analysis with a scintillation counter.

[7] = tested on: blood pressure and pulse in mice; test: Blood pressure and pulse measurements (tail cuff); assay type: in vivo, mouse; details: for blood pressure response: i.p.
Method: Mean systolic, diastolic and arterial blood pressure (BP) and mean pulse was measured in age and sex matched mice using a computerized tail cuff system (Hatteras Systems, MC4000 Blood Pressure Analysis System, Cary, N.C.). The mice were allowed to acclimate to the apparatus for 5 min prior to the start of measurement. Each animal underwent a cycle of 10 preliminary and 50 experimental pressures measurements for data acquisition and data calculation. Animals were acclimated to the measuring system and protocol for 4 days with treatment with data acquisition being performed on the 5th day. Pressures recordings were performed at the same time each day. Data was accepted if the mouse had valid readings for at least 20 consecutive pulse beats. All studies were performed at the same hour each day.
Respirations were monitored continuously monitored by direct observation of the animal. Body core temperature was measured via rectal probe. Temperature control was performed using a water-circulating warming surface and heating lamp. Following a 15 minute period of stabilization mean systolic, diastolic and arterial blood pressure and mean pulse measurements were determined.

[8] = tested on: cutaneous perfusion in mice; assay type: in vivo, mouse; details: rectal catheter bolus, core temperature 34.5° C.
Method: Skin blood flow was measured using laser Doppler imaging (MoorLD1-2λ, Moor Instruments, Devon, England). Briefly, animals were placed in a prone position on a heating pad, and anesthesia was provided by 2% inhalation isoflurane in a 50:50 mixture of oxygen to room air. Core temperature was monitored by rectal probe and was further controlled with a heat lamp. The hair of the dorsum of the animals was clipped and depilated with Nare™ and a template with a 1 cm^2 area used to trace a region of interest (ROI). After equilibration to the experimental set-up analysis of cutaneous blood flow was obtained. The following instrument settings were used: override distance 21 cm; scan time 4 msec/pixel. Results are expressed as the change percent control from baseline of the ROI.

[9] = tested on: murine WT and TSP1-null platelets; test: cGMP in murine platelets; assay type: cell-based, mouse; details: 100 μM added to Tyrode's
Method: After induction of general anesthesia with isoflurane 2%, age and sex matched C57BL/6 WT and TSP1-null mice underwent cardiac puncture. Blood was aspirated into 1 cc syringes with a 25 gauge needle containing 100 μl heparin (Heparin Lock Flush, Abbott, Chicago, Ill.), mixed with 100 μl 3% ACD and centrifuged in 1.2 ml S-Monovette separation tubes (Sarstedt, Germany). PRP was aspirated off, centrifuged, and the resulting platelet pellet was resuspended in 200 μl of Tyrode's buffer.
as §2

3TSR: recombinant type 1 repeats of TSP1
NO-stimulated proliferation [1]: failed to inhibit
NO-stimulated cGMP [2]: inhibited NO-stimulated cGMP responses in WT
NO delay of thrombin-induced platelet aggregation ([3]; high shear, thrombin 0.2 U/ml): blocked the ability of NO to delay thrombin-induced aggregation
NO delay of thrombin-induced platelet aggregation ([3]; static / low shear conditions): reversed the NO delay of aggregation under static conditions
NO stimulated cGMP in platelets [4]: inhibited NO stimulated cGMP flux

CCN(CC)/[N+]([O-])=N/O.CCNCC [DEA/NO, diethylamine NONOate]
magnitude of increased BOLD MRI signal ([5]; TSP1 null mice): 25%
decreased BOLD signal ([5]; TSP null mice): 14%
decreased BOLD signal ([5]; WT mice): 11%
magnitude of increased BOLD MRI signal ([5]; WT mice): 15%
32P-incorporation into cGK-I selective peptide [6]: strongly induced 32P-incorporation
blood pressure response ([7]; TSP1 null versus wild type): significantly greater decreases in blood pressure measurements
mean pulse ([7]; after i.p. challenge): tended to increase modestly
blood pressure response ([7]; awake wild type and TSP1-null mice): significant decreases in systolic, diastolic and mean arterial pressure
initial increase in cutaneous perfusion [8]: significantly greater in TSP1 and CD47 null mice

N=C(N)NCCC[C@H](N)C(=O)O [L-arginine, reference compound]
platelet cGMP levels [9]: elevated cGMP levels in TSP1-null but not in WT platelets

Reference: patent US8865672B2, “Prevention of tissue ischemia and related methods” (The United States of America, as represented by the …, priority 2006, dated 2014)
